# “And” between values parts separate entries of the source, which are not always exact repeats. Equal entries are not always repeated. Where a SMILES comes first, the peptide text is derived from it. The star is where a group is joined. Orn(α-tetramethylguanidino) = CN(C)C(=N[C@@H](CCCN)C(=O)*)N(C)C
# Tests used:
# in vivo = assay: in vivo; parameters: species or system CD-1 mice; settings: iv; for level at 5 min: female, CD-1, mouse, 5 mg/kg; for Time within which peptide is cleared: mouse
# From the text: A protocol to quantify Api88, Api137, and their major metabolites was established analog to that of oncocin derivatives, reported recently (Schmidt et al., [2016]). Briefly, an Alliance® 2695 HPLC system was coupled online to an ESI-QqLIT-MS (4,000 QTRAP®) equipped with a TurboV™ ion-spray source and operated in positive ion MRM mode using the Analyst® 1.6 software. Separation was achieved on a Jupiter C18-column (internal diameter 1 mm, length 150 mm, particle size 5 μm, pore size 300 Å) at 55 °C using a linear 5-min gradient from 2.7 to 20.7% aqueous acetonitrile containing ammonium formate (26 mmol/L, pH 3.0). Further details about instrumentation, MRM optimization, and MS settings are provided as Supplementary Material (Tables S1–S4, Method M1).
# Female CD-1 mice (20–23 g weight, 7 weeks) were injected intravenously (10 mL/kg) in the tail vein with peptides (0.5 g/L) dissolved in sterile saline (0.9%, w/v) corresponding to doses of 5 mg/kg body weight. Animals (n = 4 per time point and peptide) were euthanized 5, 10, 20, 40, and 60 min post-injection by carbon dioxide inhalation and exsanguination. For further details of sample preparation and recovery experiments see Supplementary Material (Methods M2, M3).
# Method M1: M ultiple reaction monitoring (MRM) transitions for apidaecin peptides Peptides (1 µ g/ m L ) were dissolved inaqueous acetonitrile (25% or 60% v/ v) containing either formate buffer (26 mmol/ L, pH 2.6, 3.0, 3.3 or 3.9 ) or formic acid (0.1% v/v ) and infused (flow rate 5 µ L/min, PHD 2600 s yringe pump) into the ES I-Q q L IT -MS (4000 QTRAP®) to optimize buffer composition and MRM. Transitions were selected from the tandem mass spectra (MS/MS) and confirmed on an ESI-QqTOF-MS (QSTAR® pulsar I) providing higher mass resolutions and mass accuracies than the QTRAP ®. The settings for declustering potential (DP), collision potential (CE), and collision cell exit potential (CXP) were optimized by ramping the respective pot entials using the compound optimization tool of the Anal yst® software.
# Method M2: Sample preparation
# Frozen organs (5 per group) wer e homogenized in sterile PBS (500 µ L) containing Protease Inhibitor Mix M (1% v/v; SERVA Electrophoresis GmbH, Heidelberg, German y) using an Ultra-Turr ax ® T25 basic (IKA-Werke, Staufen, German y, rotational speed 21,500 min-1) for 1 min. […]
# Limits of detection (LOD) and quantification (LOQ) corresponded to the lowest peptide concentrations in water, plasma, or homogenates of brain, liver , and kidney providing a peak height exceeding the noise in the retention time window at least threefol d (LOD) or ten times (LOQ). Recover y r ates o f SPE and matrix effects were determined b y the p eak areas of spiked
# E. coli ATCC 25922 = settings: E. coli ATCC 25922; ref Czihal et al., 2012; Berthold et al., 2013; cited from earlier work
# From the text: Antimicrobial peptides (AMPs) are considered as promising alternatives to common antibiotics that threateningly lose their therapeutic potentials against multidrug-resistant pathogens (Fox, [2013]; Wang et al., [2015]). In contrast to approved therapeutic peptide hormones, antimicrobial peptides have to be administered at much higher doses, which may amplify general drawbacks of peptide therapeutics. For example, the diabetes peptide drugs exenatide and pramlintide are given at daily doses of 20 μg (Byetta®; ~0.5 μg/kg) and 120 μg (Symlin®; ~1.5 μg/kg; Heine et al., [2005]; Hay et al., [2015]) ... || Apidaecin analogs Api88 and Api137 are similarly active against Gram-negative bacteria with a tendency of higher activity of Api88 against K. pneumoniae (Czihal et al., [2012]; Berthold et al., [2013]). However, Api88 carries a C-terminal amide that is responsible for its very fast proteolytic cleavage in serum, the supernatant obtained after complete coagulation and centrifugation of blood. The in vitro serum stability assay, which is an important in vitro criterion to select therapeutic peptides for systemic applications, yielded very short half-life times of 5 min for Api88, which indicate ...
# 70S ribosomes = settings: binding to 70S ribosomes; ref Krizsan et al., 2014; cited from earlier work
# From the text: Antimicrobial peptides (AMPs) are considered as promising alternatives to common antibiotics that threateningly lose their therapeutic potentials against multidrug-resistant pathogens (Fox, [2013]; Wang et al., [2015]). In contrast to approved therapeutic peptide hormones, antimicrobial peptides have to be administered at much higher doses, which may amplify general drawbacks of peptide therapeutics. For example, the diabetes peptide drugs exenatide and pramlintide are given at daily doses of 20 μg (Byetta®; ~0.5 μg/kg) and 120 μg (Symlin®; ~1.5 μg/kg; Heine et al., [2005]; Hay et al., [2015]) ...
SMILES,level at 5 min (in vivo) [ng/mL],Time within which peptide is cleared (in vivo),MIC (E. coli ATCC 25922),Kd (70S ribosomes) [nM]
CC[C@H](C)[C@H](NC(=O)[C@H](Cc1ccc(O)cc1)NC(=O)[C@@H](NC(=O)[C@@H]1CCCN1C(=O)[C@H](CCCNC(=N)N)NC(=O)[C@H](CC(N)=O)NC(=O)[C@H](CC(N)=O)NC(=O)[C@H](CCCN)N=C(N(C)C)N(C)C)C(C)C)C(=O)N1CCC[C@H]1C(=O)N[C@@H](CCCNC(=N)N)C(=O)N1CCC[C@H]1C(=O)N[C@@H](CCCNC(=N)N)C(=O)N1CCC[C@H]1C(=O)N1CCC[C@H]1C(=O)N[C@@H](Cc1c[nH]cn1)C(=O)N1CCC[C@H]1C(=O)N[C@@H](CCCNC(=N)N)C(=O)N[C@@H](CC(C)C)C(=O)O [Api137] ({Orn(α-tetramethylguanidino)}-NNRPVYIPRPRPPHPRL-OH),400,~ 60 min,4 μg/mL and ~ 4 μg/mL,560
CC[C@H](C)[C@H](NC(=O)[C@H](Cc1ccc(O)cc1)NC(=O)[C@@H](NC(=O)[C@@H]1CCCN1C(=O)[C@H](CCCNC(=N)N)NC(=O)[C@H](CC(N)=O)NC(=O)[C@H](CC(N)=O)NC(=O)[C@H](CCCN)N=C(N(C)C)N(C)C)C(C)C)C(=O)N1CCC[C@H]1C(=O)N[C@@H](CCCNC(=N)N)C(=O)N1CCC[C@H]1C(=O)N[C@@H](CCCNC(=N)N)C(=O)N1CCC[C@H]1C(=O)N1CCC[C@H]1C(=O)N[C@@H](Cc1c[nH]cn1)C(=O)N1CCC[C@H]1C(=O)N[C@@H](CCCNC(=N)N)C(=O)N[C@@H](CC(C)C)C(N)=O [Api88] ({Orn(α-tetramethylguanidino)}-NNRPVYIPRPRPPHPRL-NH2),1000,~ 60 min,~ 4 μg/mL,1200

# From PMC5357639 (Frontiers in Chemistry, 2017)
